Reference: patent US7229803B2, “Reaction of (di)amines in the presence of a lysine oxidase and of a reducing agent” (BASF Aktiengesellschaft, priority 2001, dated 2007)

Target: T1, lysine oxidase from Pichia pastoris (Komagataella pastoris, UniProt Q96X16)
T1 construct: Purification of the Lysine Oxidase from Pichia pastoris; endogenous in cells; host or cells: Pichia pastoris (enzyme purified from the yeast itself)
T1 sequence (Q96X16 19-787): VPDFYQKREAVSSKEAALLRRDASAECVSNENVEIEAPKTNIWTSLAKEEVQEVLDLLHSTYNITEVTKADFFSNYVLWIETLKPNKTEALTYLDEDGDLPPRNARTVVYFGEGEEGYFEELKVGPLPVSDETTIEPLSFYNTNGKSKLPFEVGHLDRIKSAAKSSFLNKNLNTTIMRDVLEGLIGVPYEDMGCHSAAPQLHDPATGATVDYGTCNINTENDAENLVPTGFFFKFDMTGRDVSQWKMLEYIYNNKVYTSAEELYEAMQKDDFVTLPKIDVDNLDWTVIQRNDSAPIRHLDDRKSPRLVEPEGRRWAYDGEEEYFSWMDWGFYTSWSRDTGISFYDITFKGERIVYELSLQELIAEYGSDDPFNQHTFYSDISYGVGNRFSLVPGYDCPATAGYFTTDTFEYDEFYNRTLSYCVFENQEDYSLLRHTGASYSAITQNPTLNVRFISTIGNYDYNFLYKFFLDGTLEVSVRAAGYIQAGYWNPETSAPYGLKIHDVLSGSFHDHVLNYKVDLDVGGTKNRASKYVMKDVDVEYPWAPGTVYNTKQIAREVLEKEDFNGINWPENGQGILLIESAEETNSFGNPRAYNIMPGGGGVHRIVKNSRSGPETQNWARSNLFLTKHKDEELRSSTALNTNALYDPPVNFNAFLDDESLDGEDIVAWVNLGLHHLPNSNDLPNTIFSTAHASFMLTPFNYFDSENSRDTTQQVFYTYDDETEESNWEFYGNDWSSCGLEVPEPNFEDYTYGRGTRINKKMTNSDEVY
Assay: Assays with various substrates: conversion in the presence of lysine oxidase (peroxidase/4-aminoantipyrine/phenol dye, absorption at 500 nm)
Format: biochemical
Conditions: substrate 18.75-1200 μmol/l in water, no reducing agent, L-lysine = 100
Description: Measurement series in each case with a concentration of 1 200, 600, 300, 150, 75, 37.5 and 18.75 μmol of (di)amine per 1 l of water were carried out in a microtiter plate. 2 measurement series were carried out in each case; one with enzyme and one without enzyme as reference.
100 μl of each of the diluted solutions were taken. To this solution were added 25 μl of lysine oxidase and 40 μl of 35 millimolar phenol solution in 200 millimolar potassium phosphate/potassium diphosphate solution with a pH of 7.5, 40 μl of a 2 millimolar aqueous 4-aminoantipyrine solution and 40 μl of a solution of 0.35 mg of peroxidase (horseradish from Sigma) in 1 ml of water.
In the reference measurement series, the 25 μl of lysine oxidase were replaced by 25 μl of water. A violet dye was formed by the […] produced on conversion of the substrates and its absorption in the UV at 500 nm was measured (T. Uwajima, O. Terada, Methods in Enzymology 1982, 89, 243 ff.).

For `NCCCCN` [1,4-Diaminobutane], the “Relative conversion rate compared with L-lysine in %” value (“Relative conversion rate … in %” for short) was 133%.
`NCCCCCCN` [1,6-Diaminohexane] was tested, and the “Relative conversion rate … in %” value was 180%.
`NCCCCCCCCN` [1,8-Diaminooctane] was tested, and the “Relative conversion rate … in %” value was 197%.
`NCc1cccnc1` [3-Aminomethylpyridine] was tested, and the “Relative conversion rate … in %” value was 128%.
For `NCc1ccccc1` [Benzylamine], the “Relative conversion rate … in %” value was 108%.
With `NCCCC[C@@H](N)C(=O)O` [D-Lysine] the “Relative conversion rate … in %” value was 100%.
With `NCC(O)CCC(N)C(=O)O` [D/L-5-Hydroxylysine] the “Relative conversion rate … in %” value was 60%.
For `NCCCC(N)C(=O)OC(F)F` [D/L-Ornithine difluoromethyl ester], the “Relative conversion rate … in %” value was 39%.
With `NCCO` [Ethanolamine] the “Relative conversion rate … in %” value was 50%.
`NCCN` [Ethylenediamine] was tested, and the “Relative conversion rate … in %” value was 84%.
With `CCOC(=O)CN` [Glycine ethyl ester] the “Relative conversion rate … in %” value was 93%.
In the case of `NCCCC[C@H](N)C(=O)O` [L-Lysine], the “Relative conversion rate … in %” value is reported as 100%.
`NCCCNCCCCNCCCN` [Spermine] was tested, and the “Relative conversion rate … in %” value was 185%.
In the case of `CCCCN` [n-Butylamine], the “Relative conversion rate … in %” value is reported as 63%.
`CC(=O)N[C@@H](CCCCN)C(=O)O` [α-N-Acetyllysine] was tested, and the “Relative conversion rate … in %” value was 120%.
